Experimental data as given in patent US7232673B2, “Antimicrobial protein from Lyophyllum shimeji” (Japan Tobacco Inc., priority 1999, dated 2007).

Experiments:
Experiment in all cases: Pyranose oxidase activity (properties of pyranose oxidase, method of Nishimura et al. 1996)
[1] = target: T1, Lyophyllum shimeji antimicrobial protein (pyranose oxidase), native, purified MonoQ fractions Nos. 42-44 containing the 65 kDa + 70 kDa proteins, SEQ ID NO:2 (Lyophyllum shimeji, UniProt Q75ZP8); format: biochemical; settings: result in words
T1 construct: MonoQ fractions 42-44 holding the 70 kDa precursor (1-618) and 65 kDa mature form (76-618), both from a single gene; not the His-tagged E. coli product
T1 sequence (Q75ZP8 76-618): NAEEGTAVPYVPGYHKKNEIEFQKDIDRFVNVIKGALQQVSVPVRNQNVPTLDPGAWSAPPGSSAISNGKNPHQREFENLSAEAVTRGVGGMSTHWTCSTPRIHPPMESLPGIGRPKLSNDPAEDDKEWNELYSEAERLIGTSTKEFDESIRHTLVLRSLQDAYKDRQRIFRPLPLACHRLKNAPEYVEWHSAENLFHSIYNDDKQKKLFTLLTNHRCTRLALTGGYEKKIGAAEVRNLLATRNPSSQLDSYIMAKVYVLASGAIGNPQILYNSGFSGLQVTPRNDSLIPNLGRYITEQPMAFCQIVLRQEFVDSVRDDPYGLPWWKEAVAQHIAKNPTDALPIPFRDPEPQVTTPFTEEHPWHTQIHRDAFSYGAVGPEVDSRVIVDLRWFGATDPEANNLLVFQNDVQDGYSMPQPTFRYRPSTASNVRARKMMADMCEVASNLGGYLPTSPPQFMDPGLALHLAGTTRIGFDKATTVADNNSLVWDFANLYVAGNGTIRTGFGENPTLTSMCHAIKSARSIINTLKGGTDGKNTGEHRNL
Procedure: (§1) The amino acid sequences thus determined were searched for in a data base. […] Thus, the pyranose oxidase activity of each MonoQ fraction was measured in accordance with the method of Nishimura et al. (1996). […] Accordingly, it is estimated that the antimicrobial activity would be derived from hydrogen peroxide formed during the oxidation of glucose in the medium by this enzyme. Next, the fractions containing both of the 65 kDa and 70 kDa proteins (FIG. 2 Nos. 42–44) were exclusively concentrated and properties of pyranose oxidase were analyzed. […] The amount of the enzyme proteins (65 kDa+70 kDa) was determined by SDS-PAGE silver staining.

[2] = substrate: OC[C@H]1OC[C@H](O)[C@@H](O)[C@@H]1O; format: biochemical, Lyophyllum shimeji; settings: other: native L. shimeji enzyme protein (65 kDa+70 kDa), table footnote (activity unit): pH 7.0, 37° C.
Procedure: as §1

[3] = substrate: OC[C@H]1OC(O)[C@H](O)[C@@H](O)[C@@H]1O; format: biochemical, Lyophyllum shimeji; settings: other: native L. shimeji enzyme protein (65 kDa+70 kDa), table footnote (activity unit): pH 7.0, 37° C.
Procedure: as §1

Question: OC[C@H]1OC(O)[C@H](O)[C@@H](O)[C@@H]1O (stereo partly shown) [Glucose] was tested. Which “Km values to glucose” value [1] did it give?
Answer: The value was “low”.

Question: For OC[C@H]1OC[C@H](O)[C@@H](O)[C@@H]1O [1,5-Anhydroglucitol], which “Km values to 1,5-anhydroglucitol” value [1] is on record?
Answer: The value was “low”.

B1: Lyophyllum shimeji antimicrobial protein (pyranose oxidase), native, purified MonoQ fractions Nos. 42-44 containing the 65 kDa + 70 kDa proteins, SEQ ID NO:2 … (protein)
chain: T1 sequence (Q75ZP8 76-618)
notes: MonoQ fractions 42-44 holding the 70 kDa precursor (1-618) and 65 kDa mature form (76-618), both from a single gene; not the His-tagged E. coli product
Question: With B1 as the molecule, how does the Km [2] read?
Answer: Its Km is 6.5 mM.

Question: What about the Km [3] of the same molecule?
Answer: Its Km is 0.50 mM.
